Measured values as given in ChEMBL document CHEMBL4177563, “The medicinal chemistry of Chikungunya virus” (Bioorg Med Chem, 2017).
In brackets after ≈: the same amount, converted by molar mass.

What was measured:
Chikungunya virus [1] = test: Antiviral activity against Chikungunya virus 899 infected in African green monkey Vero cells by MTS assay; type: functional, organism-based; conditions: Chikungunya virus, 899, Vero
[2] = Cytotoxicity against African green monkey Vero cells assessed as reduction in cell viability after 18 hrs by […]; type: cell-based; conditions: chlorocebus sabaeus
[3] = Selectivity index, ratio of CC50 for African green monkey Vero cells to EC50 for Chikungunya virus 899; type: toxicity; conditions: read-out: Ratio CC50/EC50
[4] = Selectivity index, ratio of CC50 for BHK cells to IC50 for Chikungunya virus LR2006 OPY1; type: toxicity; conditions: hamster, read-out: Ratio CC50/IC50
[5] = Cytotoxicity against BHK cells assessed as reduction in cell viability after 48 hrs in presence of ATP by Celltiter-Glo luminescent assay; type: cell-based, Mesocricetus auratus; conditions: hamster
Chikungunya virus [6] = test: Antiviral activity against Chikungunya virus LR2006 OPY1 infected in BHK cells measured at 14 hrs post infection by luciferase reporter gene assay; type: functional, organism-based
[7] = Cytotoxicity against African green monkey Vero cells assessed as reduction in cell viability measured on day 6 to 7 post infection by MTS dye-based microscopic analysis; conditions: chlorocebus sabaeus
Chikungunya virus [8] = test: Antiviral activity against Chikungunya virus infected in African green monkey Vero cells assessed as inhibition of virus-induced cytopathogenic effect measured on day 6 to 7 post infection by MTS dye-based microscopic analysis; type: functional, organism-based; conditions: 144 h
Chikungunya virus [9] = test: Antiviral activity against Chikungunya virus infected in African green monkey Vero cells after 72 hrs by MTT dye-based assay; type: functional, organism-based
[10] = Binding affinity to Chikungunya virus […]
[11] = Selectivity index, ratio of CC50 for African green monkey Vero cells to IC50 for Chikungunya virus MY/065/08/FN295485; type: toxicity; conditions: read-out: Ratio IC50
Chikungunya virus [12] = test: Antiviral activity against Chikungunya virus MY/065/08/FN295485 infected in African green monkey Vero cells assessed as reduction in virus yield after 48 hrs by titration assay; type: functional, organism-based; conditions: MY/065/08/FN295485, Vero
Chikungunya virus [13] = test: Antiviral activity against Chikungunya virus infected in African green monkey Vero cells; type: functional, organism-based

Row | Structure (SMILES) | EC50 (Chikungunya virus [1]) [µM] | CC50 at 18 h [2] [µM] | selectivity ratio [3] | also measured
1 | Cc1ccc2nc(SCc3cc(=O)oc4cc(OS(=O)(=O)c5ccc([N+](=O)[O-])cc5)ccc34)[nH]c(=O)c2c1 | > 199 |  |  | 
2 | Cc1cnc(SCc2cc(=O)oc3cc(O)ccc23)[nH]c1=O | > 316 |  |  | 
3 | O=c1cc(CSc2nc3ccccc3c(=O)[nH]2)c2ccc(OS(=O)(=O)c3ccc(F)cc3)cc2o1 | 18.4 | 30 | 1.6 | 
4 | O=c1cc(CSc2nc3ccccc3c(=O)[nH]2)c2ccc(OCc3ccccc3)cc2o1 | > 45.2 |  |  | 
5 | O=c1cc(CSc2nc3ccccc3c(=O)[nH]2)c2ccc(OS(=O)(=O)c3ccccc3)cc2o1 | 19.1 | 178 | 9.3 | 
6 | Cc1ccc2nc(SCc3cc(=O)oc4cc(OS(=O)(=O)c5ccc(F)cc5)ccc34)[nH]c(=O)c2c1 | 116 | 86.4 |  | 
7 | Cc1cnc(SCc2cc(=O)oc3cc(OCc4ccccc4)ccc23)[nH]c1=O | > 246 |  |  | 
8 | OCCN1CCN(CCCN2c3ccccc3Sc3ccc(Cl)cc32)CC1 [PERPHENAZINE] |  |  |  | selectivity ratio [4]: 6.2; CC50 at 48 h [5]: 155 µM; IC50 (Chikungunya virus [6]): 25.1 µM
9 | Cc1ccc(S(=O)(=O)Oc2ccc3c(CSc4nc5ccccc5c(=O)[nH]4)cc(=O)oc3c2)cc1 | 10.2 | 117 | 11.5 | 
10 | C=C(C)[C@@]1(O)[C@@H]2OC3(c4ccccc4)O[C@H]1[C@@H](C)[C@]1(O3)C3=CC(=C(Cl)Cl)[C@H](OC(=O)c4ccccc4)[C@@]3(O)[C@H](OC(C)=O)[C@@]3(COC(C)=O)O[C@H]3[C@@H]21 |  |  |  | CC50 [7]: 35 µM; EC50 (Chikungunya virus [8]): 1500 nM
11 | O=c1cc(CSc2nc3ccccc3c(=O)[nH]2)c2ccc(OS(=O)(=O)c3ccc([N+](=O)[O-])cc3)cc2o1 | 54.5 | 117 | 2.2 | 
12 | Cc1cnc(SCc2cc(=O)oc3cc(OCc4ccc(F)cc4)ccc23)[nH]c1=O | 45.1 | 104 | 2.3 | 
13 | O=c1cc(-c2ccc(O)c(O)c2)oc2cc(O)cc(O)c12 [LUTEOLIN] |  |  |  | IC50 (Chikungunya virus [9]): 22.5 to 127 µM
14 | O=c1ccnc(SCc2cc(=O)oc3cc(OCc4ccc([N+](=O)[O-])cc4)ccc23)[nH]1 | 4.6 | 13.8 | 3 | 
15 | O=c1c(O)c(-c2ccc(O)c(O)c2)oc2cc(O)c(O)c(O)c12 [QUERCETAGETIN] |  |  |  | Ki [10]: 489 nM; selectivity ratio [11]: 16.3; IC50 (Chikungunya virus [12]): 25.3 mM
16 | O=c1ccnc(SCc2cc(=O)oc3cc(OCc4ccccc4)ccc23)[nH]1 | > 255 |  |  | 
17 | O=c1ccnc(SCc2cc(=O)oc3cc(O)ccc23)[nH]1 | > 331 |  |  | 
18 | O=C1CCN=C(SCc2cc(=O)oc3cc(OS(=O)(=O)c4ccc(F)cc4)ccc23)N1 | 128 | 111 |  | 
19 | O=C1C[C@@H](c2ccc(O)cc2)Oc2cc(O)cc(O)c21 [NARINGENIN] |  |  |  | Ki [10]: 685 nM
20 | C=C[C@H]1CN2CC[C@H]1C[C@H]2[C@H](O)c1ccnc2ccc(OC)cc12 [QUININE] |  |  |  | IC50 (Chikungunya virus [13]): 0.1 µg/mL (≈ 0.308 µM)
21 | O=c1cc(CSc2nc(O)c3ccccc3n2)c2ccc(O)cc2o1 | 192 | > 284 | > 1.5 | 
22 | O=c1cc(CSc2nc3ccccc3c(=O)[nH]2)c2ccc(OS(=O)(=O)c3ccccc3[N+](=O)[O-])cc2o1 | 17.2 | 144 | 8.8 | 
23 | CN1CCC(CN2c3ccccc3Sc3ccccc32)C1 (configuration not stated) [METHDILAZINE] |  |  |  | selectivity ratio [4]: 5.6; CC50 at 48 h [5]: 63.8 µM; IC50 (Chikungunya virus [6]): 11.3 µM
24 | CC1CCCCCCCC(C)C(=O)O[C@H]2/C(=C/Cl)C=C3[C@]45OC6(c7ccccc7)O[C@H]([C@@H]4[C@@H]4O[C@]4(CO)C[C@@]32O)[C@@](O)([C@@H](O6)[C@H]5C)C(O)(COC(=O)c2ccccc2O)C1 (some centres not stated) |  |  |  | CC50 [7]: 4.6 µM; EC50 (Chikungunya virus [8]): 1900 nM
25 | Cc1ccc(COc2ccc3c(CSc4nc5ccccc5c(=O)[nH]4)cc(=O)oc3c2)cc1 | > 2.19 | 102 |  | 
